Test results as given in PMC7719179, “Small molecule inhibition of Dynamin-dependent endocytosis targets multiple niche signals and impairs leukemia stem cells” (Nature Communications, 2020).
“And” between values parts separate entries of the source, which are not always exact repeats. Identical values can stand only once. Like-named read-outs stand apart in the source and are kept apart here.

Key:
[1] = tested on: DN3a T-cell progenitors of Lmo2^Tg mice; assay: Thymocyte populations (DN3a, DN1-DN4) in the thymus of treated Lmo2^Tg mice; assay type: in vivo, mouse
Description: The synthesis of Dynole 34-2 and Dyngo 4a compounds was performed as previously described[32],[33] and was kindly provided by A. McCluskey. For in vitro assays, the specific Dynamin inhibitors Dynole 34-2, Dyngo 4a and Dynasore (#S8047, Selleckchem, Sapphire Bioscience Pty Ltd, Redfern NSW, Australia) were made as stock solutions in 100% dimethyl sulfoxide (DMSO), which were stored frozen. These compounds were diluted in 50% v/v DMSO/20 mM Tris-HCl pH 7.4 immediately prior to use. For in vivo administration, Dynole 34-2 was resuspended in pre-warmed HRC#5 (Pharmatek, San Diego CA, USA) 1 : 9 phosphate-buffered saline (PBS) 1× pH 7.4 at 37 °C, and sonicated 10 times for 30 s using a Bioruptor Plus (Biogenode) immediately prior to injection at 30 mg/kg, twice daily.
Flow cytometry analyses were performed as previously described[10],[86] on single-cell suspensions stained using BD Pharmingen antibodies (BD Australia, North Ryde NSW, Australia) against mouse CD4 (RM4-5), CD8 (53-6.7), CD25 (PC61.5), CD44 (IM7), CD45.1 (A20), CD45.2 (104), Thy1.2 (53-2.1; #561616), TCRβ (H57-597), CD117 (ACK45), CD135 (A2F10.1), CD150 (TC15-12F12.2; #562373), B220 (RA3-6B2; #563708), CD3 (145-2C11; #563004), CD19 (ID3; #557655), Gr-1 (RB6-8C5; #563299 and #565033), CD11b (M1/70; #563015 and #560455), Ter119 (Ter119; #565523 and #557909), Sca-1 (D7; #558160) and an eBioscience antibody (eBioscience, Invitrogen) against mouse NOTCH1 (22E5). DN3 populations and IL-7R were stained using BioLegend antibodies (Australian Biosearch, Balcatta WA, Australia) against mouse CD28 (E18) and CD127 (A7R34), respectively. Apoptosis was measured using an antibody against AnnexinV (#556420, BD Australia) and the […] Sytox Blue (BD Australia) following the manufacturer’s protocol.
All experiments were pre-approved by the AMREP Animal Ethics Committee. The current study was performed by using the previously described CD2-Lmo2 (Lmo2^Tg) mouse model. Mice cohorts were generated by cross-breeding with the Lck-Notch1-IC9 (N1-ICD^Tg)[45] generously given by T. Hoang[86], the Lck-STAT5b-CA (STAT5-CA^Tg)[88] kindly given by M.P. McCormack, the Mx1-Cre transgenic (Mx)[89] and the ROSA26-YFP Cre-reporter (YFP)[90] mouse strains. All mouse lines were backcrossed onto a C57BL/6J background for ten generations and maintained in pathogen-free conditions according to institutional animal care guidelines.

[2] = tested on: patient-derived ETP-ALL and T-ALL xenografts; assay: Relative viability and LC50 on patient-derived ETP-ALL and T-ALL xenografts, 48 h; assay type: cell-based, human; design: Relative % viable cells: unit of the concentration uncertain; conditions: for CC50: Homo sapiens, read-out: LC50 Dynole 34-2
Excerpt: patient-derived (a ) ETP- ALL1 and (b) T-ALL 2 xenografts treated with increasing concentration of […]
Viability was normalized to vehicle-treated cells with experiments performed in duplicates. Human CD34-positive (CD34+) hematopoietic stem and progenitors from healthy donors (N=3) were used as controls. […]

[3] = thymus of treated Lmo2^Tg mice, absolute numbers vs vehicle (response to reviewers)
[4] = thymus of treated Lmo2^Tg mice, individual mice

Structure (SMILES): CCCCCCCCNC(=O)C(C#N)=Cc1cn(CCCN(C)C)c2ccccc12 [Dynole 34-2, 2-Cyano-N-octyl-3-(1-(3-dimethylaminopropyl)-1H-indol-3-yl)-acrylamide]
- reduction in the numbers of DN3a thymocytes ([1]; Lmo2^Tg mice at end of treatment, vs vehicle, in words): tenfold reduction
- Absolute numbers DN3a cells ([1]; thymus of 6-week-old Lmo2^Tg mice after two rounds of treatment, individual animals (Fig 4a)): 1380000 and 2260000 and 730000 and 1690000 and 1100000
- Absolute numbers DN3a cells ([1]; thymus of 6-week-old Lmo2^Tg mice, 30 mg/kg i.p. twice daily, 5 days on 2 consecutive weeks, individual animals (Fig 3a), 30 mg/kg): 197000 and 290000 and 173000 and 171000 and 222000 and 359000
- decrease in DN3a thymocytes when combined with VXL, as compared to VXL alone ([1]; thymus of treated Lmo2^Tg mice (response to reviewers)): 75%
- decrease in DN1 cells [1, 3]: 56%
- decrease in DN2 cells [1, 3]: 45%
- decrease in DN3a cells [1, 3]: 64%
- increase in DN4 cells [1, 3]: 134%
- Proportion of DN cells (% DN), DN1 [1, 4]: 1.8 % DN and 1.3 % DN and 3.9 % DN and 6.4 % DN and 2.8 % DN
- Proportion of DN cells (% DN), DN2 [1, 4]: 1 % DN and 0.2 % DN and 0.4 % DN and 0.1 % DN and 0.5 % DN
- Proportion of DN cells (% DN), DN3 [1, 4]: 18.3 % DN and 14.1 % DN and 34.4 % DN and 43.5 % DN and 16.6 % DN
- Proportion of DN cells (% DN), DN4 [1, 4]: 79.5 % DN and 84.5 % DN and 61.1 % DN and 49.1 % DN and 80.5 % DN
- Relative % viable cells ([2]; ALL8, dose 0.04 (unit uncertain)): 90.4% and 94.4%
- Relative % viable cells ([2]; ALL8, dose 0.2 (unit uncertain)): 80.81% and 92.6%
- Relative % viable cells ([2]; ALL8, dose 1 (unit uncertain)): 72.11% and 72.9% and 110.2%
- Relative % viable cells ([2]; ALL8, dose 5 (unit uncertain)): 59.7% and 59.2%
- Relative % viable cells ([2]; ALL8, dose 125 (unit uncertain)): 1.3% and 3.1% and 2.3%
- Relative % viable cells ([2]; ALL29, dose 0.04 (unit uncertain)): 101.7% and 96.7%
- Relative % viable cells ([2]; ALL29, dose 0.2 (unit uncertain)): 96.7% and 101.5%
- Relative % viable cells ([2]; ALL29, dose 5 (unit uncertain)): 40.7% and 42.8%
- Relative % viable cells ([2]; ALL29, dose 125 (unit uncertain)): 9.1% and 6.3% and 3%
- Relative % viable cells ([2]; ALL33, dose 0.04 (unit uncertain)): 93.7% and 90.9%
- Relative % viable cells ([2]; ALL33, dose 0.2 (unit uncertain)): 85.9%
- Relative % viable cells ([2]; ALL33, dose 5 (unit uncertain)): 38.4% and 45.6%
- Relative % viable cells ([2]; ALL33, dose 25 (unit uncertain)): 25.8% and 17.5%
- Relative % viable cells ([2]; ALL33, dose 125 (unit uncertain)): 0%
- Relative % viable cells ([2]; ETP1, dose 0.04 (unit uncertain)): 101.2%
- Relative % viable cells ([2]; ETP1, dose 0.2 (unit uncertain)): 100.4% and 100%
- Relative % viable cells ([2]; ETP1, dose 1 (unit uncertain)): 99.9% and 99.8%
- Relative % viable cells ([2]; ETP1, dose 5 (unit uncertain)): 98.2%
- Relative % viable cells ([2]; ETP1, dose 25 (unit uncertain)): 36.3% and 35.6%
- Relative % viable cells ([2]; ETP1, dose 125 (unit uncertain)): 7% and 0%
- Relative % viable cells ([2]; ETP5, dose 0.04 (unit uncertain)): 102.7%
- Relative % viable cells ([2]; ETP5, dose 0.2 (unit uncertain)): 95.7% and 97.2%
- Relative % viable cells ([2]; ETP5, dose 1 (unit uncertain)): 97.7%
- Relative % viable cells ([2]; ETP5, dose 5 (unit uncertain)): 90.9% and 92.8%
- Relative % viable cells ([2]; ETP5, dose 25 (unit uncertain)): 25.9% and 13.9%
- Relative % viable cells ([2]; ETP5, dose 125 (unit uncertain)): 2.9% and 6.9% and 3.5%
- Relative % viable cells ([2]; ETP12, dose 0.04 (unit uncertain)): 107.6% and 104.3%
- Relative % viable cells ([2]; ETP12, dose 0.2 (unit uncertain)): 95.8% and 90.7%
- Relative % viable cells ([2]; ETP12, dose 5 (unit uncertain)): 77.5%
- Relative % viable cells ([2]; ETP12, dose 25 (unit uncertain)): 2.7% and 1.6% and 1.1%
- Relative % viable cells ([2]; ETP12, dose 125 (unit uncertain)): 2.6% and 7.9% and 2%
- Relative % viable cells ([2]; ETP13, dose 0.04 (unit uncertain)): 91.2% and 89.4%
- Relative % viable cells ([2]; ETP13, dose 0.2 (unit uncertain)): 91.8% and 87.5%
- Relative % viable cells ([2]; ETP13, dose 1 (unit uncertain)): 90.4% and 102.1%
- Relative % viable cells ([2]; ETP13, dose 5 (unit uncertain)): 60.7% and 66.4% and 84.4%
- Relative % viable cells ([2]; ETP13, dose 25 (unit uncertain)): 4.2% and 3.5%
- Relative % viable cells ([2]; ETP13, dose 125 (unit uncertain)): 1.5% and 2.3% and 0.7%
- Relative % viable cells ([2]; ETP14, dose 0.04 (unit uncertain)): 74% and 80.7% and 108.4%
- Relative % viable cells ([2]; ETP14, dose 0.2 (unit uncertain)): 80.8% and 85.9%
- Relative % viable cells ([2]; ETP14, dose 1 (unit uncertain)): 56.6% and 73.2% and 82.4%
- Relative % viable cells ([2]; ETP14, dose 5 (unit uncertain)): 58.1% and 85.7% and 56%
- Relative % viable cells ([2]; ETP14, dose 25 (unit uncertain)): 10.8% and 11.5%
- CC50 ([2]; ALL8, Relapse, Mature): 5.76 µM
- CC50 ([2]; ALL29, Diagnosis, Mature): 4.51 µM
- CC50 ([2]; ALL33, Diagnosis, Mature): 2.43 µM
- CC50 ([2]; ETP1, Diagnosis, ETP): 19.9 µM
- CC50 ([2]; ETP5, Diagnosis, ETP): 49.9 µM
- CC50 ([2]; ETP12, Diagnosis, ETP): 4.26 µM
- CC50 ([2]; ETP13, Diagnosis, ETP): 7.05 µM
- CC50 ([2]; ETP14, Diagnosis, ETP): 5.25 µM
